{"source": "paper doi:10.1101/2020.02.10.942029v1", "about": "(biorxiv, 2020)", "biological_target": "human CatSper (CatSper channel, cation channel of sperm) (Homo sapiens, UniProt Q7RTX7+Q86XQ3+Q8NEC5+Q96P56)", "assay": "whole-cell patch clamp of human sperm", "assay_type": "cell-based", "details": "activator; 20 μM, NaDVF, pHi 7.3, room temperature"}
{"compound": "CCCCCCOC(=O)[C@]1(O)C[C@@H]2O[C@@]1(C)n1c3ccccc3c3c4c(c5c6ccccc6n2c5c31)C(=O)NC4", "note": "[KT 5720]", "values": [{"measurement": "fold current enhancement at -80 mV", "result": "1.48 ± 0.47", "unit": "fold"}]}
